From ChEMBL document CHEMBL1201862, “PubChem BioAssay data set” (2004)
“And” between values parts separate entries of the source, which are not always exact repeats. Equal entries are not always repeated. The source made the active and inactive calls.

Columns and labels:
[1] = intracellular Trypanosoma cruzi inhibitors in host cells – cell-based, plate reader, cherry-pick samples, set 3, dose response (AID 651818); format: functional;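 further: compounds incubated with infected cells for about four days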
HEK293 = experiment: inhibitors of LMP1-driven NF-kB reporter, dose response, cell-based, HEK293, luciferase, cherry-pick (AID 588343); format: functional; conditions: Homo sapiens
Cytochrome P450 2D6 = Cytochrome P450 2D6 (Homo sapiens, UniProt P10635);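 further: CYP2D6 member of a cytochrome P450 panel assay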
Cytochrome P450 3A4 [2] = target: T1, Cytochrome P450 3A4 (Homo sapiens, UniProt P08684)
Cytochrome P450 2C9 [3] = target: T2, Cytochrome P450 2C9 (Homo sapiens, UniProt P11712)
Vero [4] = experiment: cells; format: functional, cell-based; conditions: Chlorocebus sabaeus
Nonstructural protein 1 = Nonstructural protein 1 (Influenza A virus, UniProt Q194T2); format: functional, Influenza A virus (A/California/07/2009(H1N1))
H9c2 = experiment: cells; format: functional, cell-based; conditions: Rattus norvegicus, H9c2, Myocardium;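 further: confirmatory concentration-response retest of ultra-high-throughput screening hits for modulation of myocardial damage; cell death induced by hydrogen peroxide oxidative stress; compound pretreatment for 60 min then peroxide exposure for 2 h; potency is for protecting the cells against peroxide damage rather than for killing them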
[5] = inhibitors of HIV Env-driven cell fusion, dose response, cherry-pick (AID 652057); format: functional, cell-based
[6] = inhibitors of clade B AD8 Env fusion, dose response, cell-based, cherry-pick (AID 652062); format: functional;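 further: luciferase signal from cell-cell fusion driven by HIV-1 clade B AD8 Env; potency is for inhibitors of fusion seen as a drop in luminescence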
[7] = target: T3, Heat shock factor protein 1 (Mus musculus, UniProt P38532); experiment: HSF1 potentiators in luciferase reporter cells, confirmation, cell-based, NIH3T3, luminescence, dose retest (AID 435004); format: functional;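 further: stress induced by proteasome inhibitor MG132 added 30 min after compound; luciferase reporter driven by HSF1 response element in NIH3T3 cells; actives raise luminescence as potentiators of the MG132 stress response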
T3 sequence (P38532 whole entry): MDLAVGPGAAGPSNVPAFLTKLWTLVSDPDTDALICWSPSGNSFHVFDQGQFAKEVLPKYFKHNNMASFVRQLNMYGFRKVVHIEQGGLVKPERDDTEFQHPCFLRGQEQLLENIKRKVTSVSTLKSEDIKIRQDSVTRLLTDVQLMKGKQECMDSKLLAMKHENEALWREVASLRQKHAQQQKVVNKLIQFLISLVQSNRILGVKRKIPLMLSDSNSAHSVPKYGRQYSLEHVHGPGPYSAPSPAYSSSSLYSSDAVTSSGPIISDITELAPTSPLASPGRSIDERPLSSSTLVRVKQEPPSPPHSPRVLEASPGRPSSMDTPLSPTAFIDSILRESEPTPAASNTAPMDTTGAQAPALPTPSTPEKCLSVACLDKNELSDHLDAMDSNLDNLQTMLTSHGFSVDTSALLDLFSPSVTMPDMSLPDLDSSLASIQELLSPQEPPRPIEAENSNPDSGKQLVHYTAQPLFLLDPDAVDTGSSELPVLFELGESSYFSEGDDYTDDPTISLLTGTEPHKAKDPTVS

Vero [8] = experiment: cells; format: functional; conditions: Chlorocebus sabaeus
[9] = Luminescence Cell-Based Dose Retest to Confirm Inhibitors of Cancer Stem Cells. [Related pubchem assays (depositor defined):AID2717, AID2721]; format: functional; conditions: Homo sapiens
[10] = target: T4, Replicative DNA helicase DnaB (Mycobacterium tuberculosis, UniProt P9WMR3); experiment: DnaB intein splicing inhibitors, dose response, biochemical, cell-free fluorescence (AID 449749); format: functional
T4 sequence (P9WMR3 whole entry): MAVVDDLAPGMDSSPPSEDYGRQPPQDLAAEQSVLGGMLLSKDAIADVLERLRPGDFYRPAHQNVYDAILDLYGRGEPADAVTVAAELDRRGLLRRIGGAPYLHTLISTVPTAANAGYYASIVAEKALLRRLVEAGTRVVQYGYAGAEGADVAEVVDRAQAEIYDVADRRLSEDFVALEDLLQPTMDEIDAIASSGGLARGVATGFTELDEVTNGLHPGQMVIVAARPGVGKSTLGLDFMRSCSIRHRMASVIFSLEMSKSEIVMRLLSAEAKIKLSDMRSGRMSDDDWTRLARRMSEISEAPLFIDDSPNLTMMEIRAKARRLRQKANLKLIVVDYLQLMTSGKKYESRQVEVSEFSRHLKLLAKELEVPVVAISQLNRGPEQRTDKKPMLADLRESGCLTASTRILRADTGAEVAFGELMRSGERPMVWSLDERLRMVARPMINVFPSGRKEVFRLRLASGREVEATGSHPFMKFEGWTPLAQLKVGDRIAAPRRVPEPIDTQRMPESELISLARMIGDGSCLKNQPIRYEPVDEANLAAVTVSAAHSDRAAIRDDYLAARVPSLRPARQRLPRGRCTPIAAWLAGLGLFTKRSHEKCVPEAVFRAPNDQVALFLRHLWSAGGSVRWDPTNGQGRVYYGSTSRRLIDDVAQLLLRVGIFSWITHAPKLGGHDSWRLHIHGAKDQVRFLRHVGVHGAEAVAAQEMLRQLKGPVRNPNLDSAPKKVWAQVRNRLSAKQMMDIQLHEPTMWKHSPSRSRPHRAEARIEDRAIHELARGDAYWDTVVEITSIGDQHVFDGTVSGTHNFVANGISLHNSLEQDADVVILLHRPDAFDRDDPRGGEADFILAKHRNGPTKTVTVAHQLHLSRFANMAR

Protein RecA = target: T5, Protein RecA (Mycobacterium tuberculosis, UniProt P9WHJ3); experiment: Fluorescence Cell-Free Homogeneous Dose Retest to Identify Inhibitors of RecA-Intein Splicing Activity. [Related pubchem assays (depositor defined):AID2097, AID2223, AID489010, AID492950]; format: functional
T5 sequence (P9WHJ3 whole entry): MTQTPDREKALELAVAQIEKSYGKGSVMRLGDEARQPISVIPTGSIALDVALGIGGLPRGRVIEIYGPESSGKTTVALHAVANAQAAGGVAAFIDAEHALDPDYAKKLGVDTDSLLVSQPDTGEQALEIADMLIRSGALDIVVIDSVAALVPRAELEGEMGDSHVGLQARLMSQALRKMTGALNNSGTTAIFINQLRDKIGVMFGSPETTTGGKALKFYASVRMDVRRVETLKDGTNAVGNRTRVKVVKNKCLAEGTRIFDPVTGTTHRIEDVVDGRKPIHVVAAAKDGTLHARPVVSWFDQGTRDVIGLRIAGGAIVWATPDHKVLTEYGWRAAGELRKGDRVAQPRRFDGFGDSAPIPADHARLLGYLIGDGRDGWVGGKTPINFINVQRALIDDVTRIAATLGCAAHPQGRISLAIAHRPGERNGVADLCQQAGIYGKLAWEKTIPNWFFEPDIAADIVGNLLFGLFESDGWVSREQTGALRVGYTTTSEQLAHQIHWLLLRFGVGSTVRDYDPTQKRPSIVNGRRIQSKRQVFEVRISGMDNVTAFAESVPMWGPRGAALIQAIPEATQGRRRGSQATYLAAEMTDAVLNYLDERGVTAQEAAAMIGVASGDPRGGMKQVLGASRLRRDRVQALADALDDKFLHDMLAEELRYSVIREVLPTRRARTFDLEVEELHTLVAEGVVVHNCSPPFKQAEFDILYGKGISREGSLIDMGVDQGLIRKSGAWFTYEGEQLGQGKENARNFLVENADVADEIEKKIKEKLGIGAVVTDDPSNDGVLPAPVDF

Protein skinhead-1 = target: T6, Protein skinhead-1 (Caenorhabditis elegans, UniProt P34707); format: functional
T6 sequence (P34707 whole entry): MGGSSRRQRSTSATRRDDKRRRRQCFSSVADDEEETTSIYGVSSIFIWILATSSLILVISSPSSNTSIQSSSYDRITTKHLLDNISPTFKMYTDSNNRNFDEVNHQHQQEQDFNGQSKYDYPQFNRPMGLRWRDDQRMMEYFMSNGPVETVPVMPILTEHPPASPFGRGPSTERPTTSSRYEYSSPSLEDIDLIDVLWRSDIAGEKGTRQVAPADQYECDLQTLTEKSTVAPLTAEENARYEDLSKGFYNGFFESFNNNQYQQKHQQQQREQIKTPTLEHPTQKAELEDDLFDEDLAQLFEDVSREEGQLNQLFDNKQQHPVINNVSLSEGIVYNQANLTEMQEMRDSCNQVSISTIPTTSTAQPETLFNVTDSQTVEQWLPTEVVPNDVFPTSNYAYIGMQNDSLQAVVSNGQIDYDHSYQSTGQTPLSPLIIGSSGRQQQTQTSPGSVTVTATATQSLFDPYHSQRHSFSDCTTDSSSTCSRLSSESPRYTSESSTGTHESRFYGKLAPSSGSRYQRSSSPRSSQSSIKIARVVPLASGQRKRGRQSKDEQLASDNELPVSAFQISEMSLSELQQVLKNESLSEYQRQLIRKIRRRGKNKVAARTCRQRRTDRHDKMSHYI

[11] = Shn3 3'UTR reporter inhibitors, dose response, cell-based, Clone20 osteoblasts, firefly luciferase, cherry-picked (AID 624132); format: functional;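 further: firefly luciferase luminescence from reporter carrying the Shn3 3'UTR in osteoblasts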
[12] = control 3'UTR Renilla luciferase suppression, dose response, counter-screen for Shn3 inhibitor project, cell-based, Clone20-Shn3RL, cherry-picked (AID 624133); format: functional
Paired box protein Pax-8 = Paired box protein Pax-8 (Homo sapiens, UniProt Q06710); experiment: inhibitors of PAX8-driven TPO luciferase reporter, dose response, RMG-I cells, cherry-pick (AID 687027); format: functional, cell-based;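 further: luciferase reporter driven by Pax8 target thyroperoxidase promoter measured by SteadyGlo luminescence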
Cytochrome P450 1A2 = target: T7, Cytochrome P450 1A2 (Homo sapiens, UniProt P05177);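 further: PubChem cytochrome P450 panel assay, CYP1A2 panel member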
T7 sequence (P05177 whole entry): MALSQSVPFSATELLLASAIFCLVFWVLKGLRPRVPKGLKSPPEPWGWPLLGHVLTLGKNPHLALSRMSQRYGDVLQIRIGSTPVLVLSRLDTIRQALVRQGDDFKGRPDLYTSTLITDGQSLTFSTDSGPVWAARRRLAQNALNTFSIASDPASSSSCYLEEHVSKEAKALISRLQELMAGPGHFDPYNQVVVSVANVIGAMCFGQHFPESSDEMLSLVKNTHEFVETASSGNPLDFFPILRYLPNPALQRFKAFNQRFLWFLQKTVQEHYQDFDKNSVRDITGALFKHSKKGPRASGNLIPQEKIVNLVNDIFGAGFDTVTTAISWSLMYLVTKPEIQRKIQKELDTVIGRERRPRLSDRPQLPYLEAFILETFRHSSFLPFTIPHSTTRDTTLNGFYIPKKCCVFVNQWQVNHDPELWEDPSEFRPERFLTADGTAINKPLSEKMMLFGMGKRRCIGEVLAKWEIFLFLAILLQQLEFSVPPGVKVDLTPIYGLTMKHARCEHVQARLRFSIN

Cytochrome P450 2C9 [13] = target: T2, Cytochrome P450 2C9; remark: listed apart in the source
Cytochrome P450 3A4 [14] = target: T1, Cytochrome P450 3A4; conditions: Potency

T1 sequence (P08684 whole entry): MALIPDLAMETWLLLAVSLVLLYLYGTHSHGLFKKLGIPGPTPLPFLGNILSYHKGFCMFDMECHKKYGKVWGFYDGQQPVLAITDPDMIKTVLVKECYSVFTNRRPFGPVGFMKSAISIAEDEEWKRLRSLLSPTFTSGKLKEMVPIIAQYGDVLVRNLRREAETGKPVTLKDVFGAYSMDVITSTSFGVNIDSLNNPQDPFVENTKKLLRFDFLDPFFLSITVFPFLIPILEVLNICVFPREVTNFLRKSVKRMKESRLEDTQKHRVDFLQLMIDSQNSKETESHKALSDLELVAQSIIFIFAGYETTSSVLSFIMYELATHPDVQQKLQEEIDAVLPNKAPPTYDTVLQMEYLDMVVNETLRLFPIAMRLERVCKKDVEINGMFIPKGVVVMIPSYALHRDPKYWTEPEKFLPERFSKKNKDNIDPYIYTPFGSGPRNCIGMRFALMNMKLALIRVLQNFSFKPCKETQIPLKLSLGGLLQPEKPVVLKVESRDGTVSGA
Nonstructural protein 1, sequence (Q194T2 whole entry): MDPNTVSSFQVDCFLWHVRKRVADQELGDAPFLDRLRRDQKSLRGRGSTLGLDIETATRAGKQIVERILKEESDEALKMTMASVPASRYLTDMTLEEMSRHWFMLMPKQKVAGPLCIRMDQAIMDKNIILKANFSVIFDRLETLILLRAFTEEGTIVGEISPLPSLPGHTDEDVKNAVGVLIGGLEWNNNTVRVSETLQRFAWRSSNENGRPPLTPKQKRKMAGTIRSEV
T2 sequence (P11712 whole entry): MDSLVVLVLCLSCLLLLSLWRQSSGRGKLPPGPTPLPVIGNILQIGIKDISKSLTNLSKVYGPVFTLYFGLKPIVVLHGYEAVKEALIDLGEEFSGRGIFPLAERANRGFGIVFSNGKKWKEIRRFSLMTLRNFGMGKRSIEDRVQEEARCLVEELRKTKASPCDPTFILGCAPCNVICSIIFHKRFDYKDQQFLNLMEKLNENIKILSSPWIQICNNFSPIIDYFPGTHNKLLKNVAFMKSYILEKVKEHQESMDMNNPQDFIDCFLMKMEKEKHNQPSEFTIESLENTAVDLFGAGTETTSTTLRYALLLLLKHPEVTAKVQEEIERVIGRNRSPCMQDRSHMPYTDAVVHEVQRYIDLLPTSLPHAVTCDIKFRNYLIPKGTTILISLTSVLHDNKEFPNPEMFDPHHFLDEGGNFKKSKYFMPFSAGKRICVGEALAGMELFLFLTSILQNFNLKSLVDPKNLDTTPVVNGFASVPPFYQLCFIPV
Cytochrome P450 2D6, sequence (P10635 whole entry): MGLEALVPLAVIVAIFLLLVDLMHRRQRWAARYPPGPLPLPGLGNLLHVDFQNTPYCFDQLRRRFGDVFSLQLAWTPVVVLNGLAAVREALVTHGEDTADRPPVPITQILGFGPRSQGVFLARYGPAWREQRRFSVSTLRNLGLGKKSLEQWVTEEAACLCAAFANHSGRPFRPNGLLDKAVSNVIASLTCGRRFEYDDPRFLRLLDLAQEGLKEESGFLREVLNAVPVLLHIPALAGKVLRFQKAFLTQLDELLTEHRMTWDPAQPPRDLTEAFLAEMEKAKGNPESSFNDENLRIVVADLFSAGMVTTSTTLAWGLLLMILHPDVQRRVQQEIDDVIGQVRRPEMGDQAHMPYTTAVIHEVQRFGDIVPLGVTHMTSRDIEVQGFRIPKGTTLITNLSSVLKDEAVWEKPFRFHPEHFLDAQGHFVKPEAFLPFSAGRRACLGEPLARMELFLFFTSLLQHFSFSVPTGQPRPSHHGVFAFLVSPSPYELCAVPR
Paired box protein Pax-8, sequence (Q06710 whole entry): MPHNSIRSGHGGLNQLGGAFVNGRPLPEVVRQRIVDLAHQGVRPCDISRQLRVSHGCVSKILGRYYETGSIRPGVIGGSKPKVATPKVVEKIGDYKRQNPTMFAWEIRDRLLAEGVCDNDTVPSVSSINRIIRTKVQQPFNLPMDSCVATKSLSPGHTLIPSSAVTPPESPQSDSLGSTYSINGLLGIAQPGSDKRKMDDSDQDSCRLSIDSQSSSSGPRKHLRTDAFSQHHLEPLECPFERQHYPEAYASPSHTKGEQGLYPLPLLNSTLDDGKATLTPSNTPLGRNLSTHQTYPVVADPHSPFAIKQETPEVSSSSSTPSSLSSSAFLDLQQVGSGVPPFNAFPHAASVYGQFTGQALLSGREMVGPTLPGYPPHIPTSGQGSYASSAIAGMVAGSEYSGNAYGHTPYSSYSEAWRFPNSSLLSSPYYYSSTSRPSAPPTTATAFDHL

C[C@@H]1CN([C@@H](C)CO)C(=O)c2cccc(NC(=O)Nc3ccc(C(F)(F)F)cc3)c2O[C@@H]1CN(C)S(=O)(=O)c1ccc(F)cc1
AC50 [1]: 4.16 µM (active)

C[C@H](CO)N1C[C@H](C)[C@@H](CN(C)Cc2ccncc2)Oc2c(NC(=O)C3CCOCC3)cccc2C1=O
AC50 [1]: 20 µM (inactive)

COc1ccc(-c2cc3c(=O)n(CC(=O)NCCCN4CCN(Cc5ccccc5)CC4)ncn3n2)cc1
AC50 (HEK293): 2.22 µM (active)

Cc1ccc(S(=O)(=O)Nc2cccc3c2O[C@@H](CN(C)S(=O)(=O)c2ccc(Cl)cc2)[C@@H](C)CN([C@H](C)CO)C3=O)cc1
AC50 [1]: 8.14 µM (active)

CCCCN=C(S)NNC(=O)c1csc2c1CCC(C)C2 (centres undefined)
AC50 (Cytochrome P450 2D6): 22.4 µM (inconclusive)
AC50 (Cytochrome P450 3A4 [2]): 15.8 µM (inconclusive)
AC50 (Cytochrome P450 2C9 [3]): inconclusive

Cc1cc(NC(=O)c2ccc3nccnc3c2)ccc1Br
IC50 (Vero [4]): > 25 µM (active)

C[C@H](CO)N1C[C@H](C)[C@H](CN(C)Cc2ccc(C(=O)Nc3ccccc3N)cc2)Oc2ccc(NC(=O)Cc3ccccc3)cc2CC1=O
AC50 [1]: 2.95 µM (active)

c1ccc(-c2cn(C[C@H]3CC[C@@H]([C@@H]4CC[C@H](Cn5cc(-c6ccccn6)nn5)O4)O3)nn2)nc1
IC50 (Nonstructural protein 1): 5.72 µM (active)

Cc1ccc(OCC(=O)N/N=C/c2cccc3cccnc23)cc1
IC50 (Nonstructural protein 1): 25.6 µM (active)
IC50 (H9c2): 14.1 µM (active)

O=C(C[C@@H]1CC[C@H]2[C@@H](COC[C@@H](O)CN2C(=O)c2ccc(F)cc2)O1)NC1Cc2ccccc2C1
AC50 [5]: 1.62 µM (active)
AC50 [6]: 3.86 µM (active)

COc1ccc(/C=C\c2nc(=O)c3ccccc3o2)cc1
EC50 [7]: 20.9 µM (active)
IC50 (Vero [4]): 19.9 µM (active)
CC50 (Vero [8]): 16.6 µM (active)

CC[C@@H](c1ccccc1)n1c(=O)n2n(c1=O)[C@H]1[C@H](O)[C@H]3O[C@@H]3/C(=N/OC/C=C(\C)CCC=C(C)C)[C@@H]1CC2
AC50 (Cytochrome P450 3A4 [2]): 3.98 µM (inconclusive)
AC50 (Cytochrome P450 2C9 [3]): inconclusive

Cc1ccc(S(=O)(=O)N(C)c2ccc(C(=O)N3CCN(Cc4ccc5c(c4)OCO5)CC3)cc2)cc1
AC50 [6]: 14 µM (active)

COc1cccc(/C=C/C(=O)c2ccc(NS(=O)(=O)c3ccc(C)cc3)cc2)c1
AC50 [9]: 2.91 µM (active)
AC50 [10]: 9.15 µM (active)
IC50 (Vero [4]): 24 µM (active)
EC50 (Protein RecA): 15.4 µM (active)
CC50 (Vero [8]): 20.4 µM (active)

CC1=NN(c2ccccc2)C(=O)/C1=C\C=C1/N(C)c2ccccc2C1(C)C
IC50 (Nonstructural protein 1): 11.8 µM (active)
IC50 (Protein skinhead-1): 21.9 µM (active)

CO[C@H]1COC(=O)C/C=C\[C@@H](C)COC(=O)[C@H]2CCCN2C(=O)C/C=C\[C@H]1C
AC50 (Cytochrome P450 2C9 [3]): inconclusive

C[C@@H]1CN([C@@H](C)CO)C(=O)c2cccc(NC(=O)CCCCCC(=O)Nc3ccccc3N)c2O[C@H]1CN(C)Cc1ccc2c(c1)OCO2
AC50 [1]: 2.58 µM (active)

CC(C)(O)/C=C/C(=O)C(C)(O)C1C(O)CC2(C)C3CC=C4C(C=C(O)C(=O)C4(C)C)C3(C)C(=O)CC12C (centres undefined)
IC50 (Vero [4]): > 25 µM (active)
CC50 (Vero [8]): 0.08 µM (active)
AC50 [11]: 1.83 µM (active)
AC50 [12]: 4.47 µM (active)
AC50 (Paired box protein Pax-8): < 0.26 µM (active)

Cc1[nH]c2ccc(O)cc2c1CCN
AC50 (Cytochrome P450 2D6): 20 µM (inconclusive) and 39.8 µM (inconclusive)
AC50 (Cytochrome P450 1A2): 31.6 µM (inconclusive) and 20 µM (inconclusive)
AC50 (Cytochrome P450 2C9 [13]): 39.8 µM (inconclusive)
AC50 (Cytochrome P450 2C9 [3]): 39.8 µM (inconclusive)

CCC1=C2CC[C@H]3C(=O)N(C)C(=O)[C@H]3[C@H]2[C@@]2(C)C(=O)N(CC(=O)OC)C(=O)N2C1=O
AC50 (Cytochrome P450 3A4 [14]): 25.1 µM (inconclusive)
